Data published in patent US7063844B2, “Presentation of hydrophobic antigens to T-cells by CD1 molecules” (The Brigham and Women's Hospital, Inc., priority 1992, dated 2006).
Like-named read-outs stand apart in the source and are kept apart here.

What was measured:
T-cell line DN1 = format: cell-based, human; details: CD1+ APCs (GM-CSF- and IL-4-treated monocytes)
[1] = in vivo; cited from earlier work
[2] = system: peripheral blood monocytes; assay: CD1 expression on cytokine-cultured monocytes, flow cytometry; format: cell-based, human; details: for expression of CD1a, CD1b and CD1c on monocytes: monocytes cultured with cytokine, 60 hours
T-cell line BDN2 = format: cell-based, human
T-cell line LDN4 = assay: Proliferation of CD1b-restricted line LDN4; format: cell-based, human
T-cell line DG.1 = format: cell-based, human; details: CD1+ PBMCs from HLA-DR7 positive individual as APCs
T-cell line DN6 = assay: Proliferation assay, CD1c-restricted line DN6; format: cell-based, human; details: CD1+ APCs
T-cell line OAB8 = assay: Proliferation assay, CD8+ TCR αβ+ line OAB8; format: cell-based, human; details: mycolic acid at 1 μg/ml
T-cell line OGD1 = assay: Proliferation assay, TCR γδ+ line OGD1; format: cell-based, human; details: activated monocytes, 3 day assay
[3] = system: T-cell lines SP-F3, CP.1.15, BK6; assay: Proliferation of further T-cell lines to test mitogenicity (SP-F3, CP.1.15, BK6); format: cell-based, human

6,6-trehalose dimycolate
proliferative response of T-cell line DN1 to antigen (T-cell line DN1): stimulated the proliferation | antibody formation [1]: enhance antibody formation | nonspecific immunity to bacterial infections and tumors [1]: stimulate nonspecific immunity

CCCCCCCCCCCCCCCCCCCCCC(=O)OC[C@H]1O[C@H](O[C@H]2O[C@H](COC(=O)CCCCCCCCCCCCCCCCCCCCC)[C@@H](O)[C@H](O)[C@H]2O)[C@H](O)[C@@H](O)[C@@H]1O [trehalose dibehanate]
proliferative response of T-cell line DN1 to antigen (T-cell line DN1): no stimulation

GM-CSF: granulocyte/monocyte colony stimulating factor used alone
expression of CD1a, CD1b and CD1c on monocytes [2]: somewhat less

lipoarabinomannan [LAM]
response of BDN2 to antigen (T-cell line BDN2): responded | proliferative response of LDN4 to antigen (T-cell line LDN4): proliferated | proliferative response of LDN4 to antigen (T-cell line LDN4; listed as Lep LAM): stimulated | proliferative response of LDN4 to antigen (T-cell line LDN4; listed as native LAM): striking T-cell proliferation

mycolic acid
recognition by T-cell line DG.1 (proliferative response) (T-cell line DG.1): recognized only by CD1b-restricted DN1 T-cells | recognition by T-cell line DN6 (proliferative response) (T-cell line DN6): recognized only by CD1b-restricted DN1 T-cells | proliferative response of T-cell line DN1 to antigen (T-cell line DN1): recognized | response of OAB8 to antigen (T-cell line OAB8): recognized | response of OGD1 to antigen (T-cell line OGD1): recognized | proliferative response of SP-F3, CP.1.15 and BK6 [3]: did not respond | mitogenicity ([3]; six T-cell lines tested): not mitogenic

mycolic acid-arabinogalactan-peptidoglycan [mAGP]
proliferative response of LDN4 to antigen (T-cell line LDN4): No response

phosphatidylinositol mannoside [PIM]
proliferative response of LDN4 to antigen (T-cell line LDN4): ten-fold more than media alone

B1: interferon-γ: cytokine, 100 U/ml (protein, UniProt P01579 24-161, looked up)
Interferon gamma: QDPYVKEAENLKKYFNAGHSDVADNGTLFLGILKNWKEESDRKIMQSQIVSFYFKLFKNFKDDQSIQKSVETIKEDMNVKFFNSNKKKRDDFEKLTNYSVTDLNVQRKAIHELIQVMAELSPAAKTGKRKRSQMLFRG
expression of CD1a, CD1b and CD1c on monocytes [2]: did not express significant levels

B2: Il-10: cytokine strongly expressed in lepromatous lesions (protein, UniProt P22301 19-178, looked up)
Interleukin-10: SPGQGTQSENSCTHFPGNLPNMLRDLRDAFSRVKTFFQMKDQLDNLLLKESLLEDFKGYLGCQALSEMIQFYLEEVMPQAENQDPDIKAHVNSLGENLKTLRLRLRRCHRFLPCENKSKAVEQVKNAFNKLQEKGIYKAMSEFDIFINYIEAYMTMKIRN
inhibition of the expression of CD1 on monocytes ([2]; data not shown): could inhibit
